Data from the NIST ThermoML archive (doi:10.1016/j.jct.2011.07.002).

How the values were obtained:
[1] = molar heat capacity at constant pressure; mn = molality of the nth substance listed, in mol/kg; settings: 298.15 K, 101 kPa, Liquid, Flow calorimetry
[2] = mn = molality of the nth substance listed, in mol/kg; settings: 101 kPa, Liquid; for mass density: Vibrating tube method

Cc1cn([C@H]2CC(O)[C@@H](CO)O2)c(=O)[nH]c1=O (stereo not given in full) [thymidine] + O
[1]
Settings	molar heat capacity at constant pressure [J/K/mol]
m1 = 0.02897	450.9
m1 = 0.04107	449.7
m1 = 0.05418	447.6
m1 = 0.06918	452.8
m1 = 0.08071	452
m1 = 0.0935	452.9
m1 = 0.1078	453.3
m1 = 0.122	453.8
m1 = 0.1336	455.5

[2]
Settings	mass density [kg/m3]	speed of sound [m/s]
288.15 K, m1 = 0.02897	1001.3	–
288.15 K, m1 = 0.04107	1002.22	–
288.15 K, m1 = 0.05418	1003.2	–
288.15 K, m1 = 0.06905	1004.3	–
288.15 K, m1 = 0.08071	1005.18	–
288.15 K, m1 = 0.0935	1006.13	–
288.15 K, m1 = 0.1077	1007.17	–
288.15 K, m1 = 0.122	1008.22	–
288.15 K, m1 = 0.1336	1009.07	–
298.15 K, m1 = 0.02049	998.571	1498.1
298.15 K, m1 = 0.03005	999.279	1498.8
298.15 K, m1 = 0.03798	999.866	1499.4
298.15 K, m1 = 0.04153	1000.13	1499.6
298.15 K, m1 = 0.04752	1000.57	1500
298.15 K, m1 = 0.05597	1001.19	1500.6
298.15 K, m1 = 0.06455	1001.82	1501.2
298.15 K, m1 = 0.0743	1002.53	1501.9
298.15 K, m1 = 0.08286	1003.15	1502.4
298.15 K, m1 = 0.09266	1003.86	1503.1
303.15 K, m1 = 0.02802	997.714	–
303.15 K, m1 = 0.03767	998.422	–
303.15 K, m1 = 0.04737	999.127	–
303.15 K, m1 = 0.05795	999.898	–
303.15 K, m1 = 0.06905	1000.7	–
303.15 K, m1 = 0.08175	1001.62	–
303.15 K, m1 = 0.09431	1002.52	–
303.15 K, m1 = 0.1077	1003.49	–
303.15 K, m1 = 0.1198	1004.35	–
313.15 K, m1 = 0.03767	994.944	–
313.15 K, m1 = 0.04737	995.64	–
313.15 K, m1 = 0.05795	996.397	–
313.15 K, m1 = 0.0689	997.176	–
313.15 K, m1 = 0.08175	998.094	–
313.15 K, m1 = 0.09431	998.979	–
313.15 K, m1 = 0.1079	999.926	–
313.15 K, m1 = 0.1198	1000.77	–
